This is an account of results in patent publication US7718613B2, “Armed peptides” (priority 2001, dated 2010).

The star is where a group is joined. Biotin = O=C1N[C@H]2[C@H](CS[C@H]2CCCCC(=O)*)N1; Myristoyl = CCCCCCCCCCCCCC(=O)*

Assay [1] can be described thus: Cytolytic activity of pH-responsive peptides on calcein liposomes at different pH. As to conditions: liposomes 4 μM lipid; 14 nM peptide 2, 20 nM peptide 7, 45 nM peptide 9; FIG. 4. Here is the method:
Liposomes encapsulating calcein dye were prepared by an extrusion method (Biochim. Biophys. Acta, 812 (1985) 55). Phophatidylcholine (50 mg) and cholesterol (13.08 mg) which had been dissolved in 4 ml of 50% v/v chloroform methanol solution were evaporated to form a lipid film in a round bottom flask. If it is essential to follow the fate of liposomes a lipohilic-dye such as DiI (50 μg) could be incorporated into the lipid film prior to hydration. The film was then hydrated with 4 ml of 120 mM calcein solution prepared in 10 mM sodium phosphate 20 mM Sodium chloride buffer pH 7.4. Liposomes were formed by 10 extrusion cycles through 0.2 micron or 0.1 um polycarbonate filters using the Liposofast 100 (Avestin) extruder device. The non encapsulated dye was removed by gel filtration on a PD-10 column using iso-osmotic buffer. The total lipid concentration of the liposomes was measured by the Stewart assay and adjusted to 3 mg per ml.
The cytolytic activity of pH-responsive peptides was followed by adding 2 or 3 μl of liposomes to a 2 ml assay volume and continually recording fluorescence. Buffers were made of 10 mM Na phosphate, 140 mM NaCl, 1 mM EDTA, 5 mM HEPES at several different pH values. […] In the experiments 2 ml of 10 mM Na phosphate, 140 mM NaCl, 1 mM EDTA, 5 mM HEPES buffer (at pH values indicated on the figure) containing liposomes (4 μM lipid) and (A) 14 nM peptide 2, (B) 20 nM peptide 7 (C) 45 nM peptide 9. In all cases peptides were added indicated by sharp dip in fluorescence were used. The pH values are as indicated for each trace. […] In general, it is well documented that many proteins including receptors, enzymes and antibodies has pH optimum usually closer to physiological value. On either side of the pH optimum the binding activity is reduced. However in general as activity profile is typically bell shape most proteins would tolerate at least a pH unit shift from optimum. Obviously the closer the results are to pH 7.4 the higher chances their are for efficient binding with target proteins or receptors.

Assay [2] relates to Rif-1 allografts. Description: In vivo imaging of calcein release, dorsal window chamber with implanted tumours. More on the design: species or system mice. As to conditions: for calcein fluorescence in tumour after armed complex relative to control liposomes: 100 μl complex via tail vein, untreated (No MIBG/glucose) mice, FIG. 10. Here is the method:
Similar methodology could be used for in vivo imaging of tumours whereby the payload is a marker or diagnostic reagent sequestered inside liposomes. For instance, when using the dye calcein, the pH released dye would be detected by increase in green fluorescence. […] Complex was prepared from biotinylated peptide (1) by adding 10 μl of pH 8 buffer to 41 μg of peptide to which was added 150 μl of Hposomes encapsulating calcein. The complex was incubated briefly and 100 μl was injected via the tail vein into mice with implanted tumours. The control mice were given equivalent levels of untreated liposomes. Using the dorsal window chamber model (Biophysics. 1997,1785-1790 & Nature Biotechnology 1999,17,1033-1035,) with implanted tumours (Rif-1 allografts) direct in vivo examination of the calcein in and around the tumours was made by fluorescence microscopy and computer controlled time-lapse images. […] Note that many tumours in animals and human, Rif-1 being one example, have an ambient pH that is slightly lower than that of normal tissue (Science 1980, 210,1253-1255 & Cancer Res 1989,4373-4384). This pathophysiological feature of tumours may be used for cancer detection. Thus unarming the complex which triggers below but close to physiological pH causes the release of dye almost immediately. This way the armed complexes can be used for in vivo detection of disease and particularly for the detection of cancer. Similarly, if the payload was combination of calcein dye and anticancer drug it would be possible to detect and treat with same formulation offering major advantages for diagnosis and treatment.

The nature of assay [3]: Detection of biotin by pH arming (avidin cloaking, calcein liposomes). From the text: The modified peptide retained its activity and pH responsive properties upon modification with biotin. […] In FIG. 2, the curves from top to bottom represent (i) Peptide at pH 6.6, (ii) Peptide at pH 8 and (iii) background signal in the absence of any peptide. In FIG. 2A, the curves from top to bottom represent peptide in the presence of (i) 11 piccolos of biotin and 1,2 fold excess avidin at pH 6.6, (ii) 1.2 fold excess avidin at pH 6.6, (iii) 11 piccolos of biotin and 1.2 fold avidin at pH 8 and (iv) 1.2 fold excess avidin at pH 8.
The biotin assay using pH sensitive peptide was repeated in a glass vial which could be illuminated with a small torch or blue LED light source. Specifically, the vials contained 1.2 ml of biotinylated hybrid peptide (17 nM) in PBS buffer pH 6.2 containing calcein liposomes ([…]) and 1.2 fold excess avidin. Biotin was present in vials 3 to 6 in increasing concentration. Vials are as follows: (1) Background sample containing liposomes only, (2) no biotin, (3) 12 pmoles biotin, (4) 15 pmoles biotin, (5) 17 pmoles biotin, (6) 50 pmoles Samples were illuminated by simple 3 mm blue diodes from underneath the cuvettes. Photographs in the order top to bottom, were taken at indicated times from addition of liposomes. The actual fluorescence readings taken on a fluorimeter at five minute period are also shown graphically. Five minutes after the addition of all reagents the fluorescence became clearly visible to the naked eye compared to the background which remained low and constant allowing detection of 12 picomole of biotin rapidly without any instrumentation. (FIG. 3). However, instrumentation available in most laboratories (e.g., fluorescence, absorption, luminescence, electrochemical, biosensors), can also be used for quantitative analysis by changing the signal development molecules incorporated into the liposomes.
Peptides were prepared at concentrations ranging from 1 to 0.01 mg/ml, depending on the activity of peptide, in deionised. A stock solution of avidin (5 unit per ml, one unit of avidin binds 1 μg of biotin.) was prepared in PBS pH 7.4 buffer. Biotin, from a stock solution of 10 mg/ml prepared in DMSO, was diluted 10000 fold with water to obtain working concentrations of 1 μg/ml. A typical cytolytic assay was performed in a total volume of 2 ml PBS buffer containing calcein liposomes (5 μM lipid) as prepared above. The progress of dye leakage was continually followed using excitation and emission wavelengths of 490 and 520 nm respectively. Peptide of known concentrations-was added at certain time points and the solution was rapidly mixed while continuing to measure signal. For uncloaking the peptide activity using biotin, the additions were made to the buffer sequentially in the order avidin, 2 minute incubation with biotin followed by the addition of biotinylated peptide (44 nM). The mixture was incubated for filter 2 minutes and fluorescence measurement initiated. At selected time points liposomes (7 μM) were added and solution mixed. For the cloaking experiments the additions were essentially the same except no free biotin was added. The avidin concentration was a 1.2 fold excess units to ensure complete cloaking. For evaluating dual trigger switching properties of biotinylated peptide the liposomes (7 μM lipid) in 2 ml of buffer were treated with peptide. (2.8 nM) and fluorescence measured continually. For cloaking experiments and pH arming the peptide solution (2.8 nM) was incubated with a 1.2 fold excess of avidin solution for 3 minutes and the cytolytic assay performed at pH 6.6 and 8. For the uncloaking experiments the avidin was pre-incubated with 11 picomoles of biotin solution.
In the control sample, liposomes (4 μM lipid) were added to 1.2 ml solution of peptide (14 nM) pre-incubated with a 1.2 fold excess avidin. Test samples contained biotin at known concentrations. […]

Assay [4] in a line: Liposome-peptide integral complex: pH-triggered calcein release and stability. As to conditions: complex tested 40 minutes from preparation; FIG. 9. An excerpt:
A fatty acid incorporated on the N-terminal of peptide anchors the sequence with liposomes to form integral complex which can then be used as single stable reagent that can be triggered to release the contents-of the liposomoes when the pH is ideal (i.e physiological 7.4) or acidic (e.g 6.2). In the first instance we prepared the liposome-peptide complex at a predetermined ratio of lipid-to peptide (30:1) in pH 8 buffer using peptide 10. […] The complex between liposomes and peptide was formed by adding peptide to […] of 10 mM NaP containing 140 mM NaCl, 1 mM EDTA, 5 mM Hepes pH 8 buffer, containing 100 μl of calcein encapsulating liposomes. The mixture was incubated for 20 mins to form the complex prior to use. In order to ascertain that the lysis is occurring due to the formation of complex and not as the action of the peptide per se it was essential to purify the liposome-peptide complex. The peptide to lipid ratio in this complex is 1:30. The complex was applied to a Sepharose CL-6B column. Fractions corresponding to liposomes were collected as clearly visible to the eye. Aliquots of these fractions were then tested for lytic activity at acidic and physiological pH values. The key aim was to establish that the peptide is liposome associated and would thus be eluted with liposome fraction in the void volume. We used 100 μl complex (a column purified fraction) and followed the release of Calcein at two different pH values.
FIG. 8A. […] Upper curve pH 5.8. Lower curve pH 7.4.
2 ml buffer (10 mM Na phosphate, 140 mM NaCl, 1 mM EDTA, 5 mM HEPES)+50 μl purified complex. Lipsomes used were 50 nm extruded. Curves top to bottom are pH 6.2, 6.4, 6.7, 7.0, 7.4
Complex 20 μl liposomes+60 μl pH 8 buffer+20 μl peptide (0.1 mg/ml) prepared and used within 2 minutes. 10 μl was added to each of the cuvettes containing 2 ml buffers. Top curve pH 6.2 (triton was added towards the end indicated by sharp dip in fluorescence to check full lysis), the lower curve is at pH 7.4. Samples measured simultaneously.
5 μL of complex in 2 ml of buffer tested 20 minutes after preparation. Upper curve pH 6.2, Lower curve pH 7.4.
5 μL of complex in 2 ml of buffer tested 5 hrs after preparation. Upper curve pH 6.2 and lower curve pH 7.4.
5 μL of complex in 2 ml of buffer tested 24 hrs after preparation curve pH 6.2, Lower curve pH 7.4.

Turning to “Myr-EAALAEALAEALAEGKPALISWIRRRLQQ-amide (Myristoyl-EAALAEALAEALAEGKPALISWIRRRLQQ-NH2; SMILES CCCCCCCCCCCCCC(=O)N[C@@H](CCC(=O)O)C(=O)N[C@@H](C)C(=O)N[C@@H](C)C(=O)N[C@@H](CC(C)C)C(=O)N[C@@H](C)C(=O)N[C@@H](CCC(=O)O)C(=O)N[C@@H](C)C(=O)N[C@@H](CC(C)C)C(=O)N[C@@H](C)C(=O)N[C@@H](CCC(=O)O)C(=O)N[C@@H](C)C(=O)N[C@@H](CC(C)C)C(=O)N[C@@H](C)C(=O)N[C@@H](CCC(=O)O)C(=O)NCC(=O)N[C@@H](CCCCN)C(=O)N1CCC[C@H]1C(=O)N[C@@H](C)C(=O)N[C@@H](CC(C)C)C(=O)N[C@H](C(=O)N[C@@H](CO)C(=O)N[C@@H](Cc1c[nH]c2ccccc12)C(=O)N[C@H](C(=O)N[C@@H](CCCNC(=N)N)C(=O)N[C@@H](CCCNC(=N)N)C(=O)N[C@@H](CCCNC(=N)N)C(=O)N[C@@H](CC(C)C)C(=O)N[C@@H](CCC(N)=O)C(=O)N[C@@H](CCC(N)=O)C(N)=O)[C@@H](C)CC)[C@@H](C)CC) [peptide 2]”, the “pH of triggering (pH profile of calcein release from liposomes)” value in assay [1] was roughly 7 pH.
Same read-out and setting: to “Myr-GIGAVLRVLTTG(TLLEFLLEELLEFL)KPALISWIRRRQQ-Amide [peptide 7]” belongs roughly 7 pH.
Take “Myristoyl-EAALAEALAEALAEGK(Biotin)PALISWIRRRLQQ-NH2 [peptide 1]”: the “calcein fluorescence in tumour after armed complex relative to control liposomes” value in assay [2] was “significant release of payload”; in assay [2] (listed as biotinylated peptide (1)), “intense image”. Further, the “triggering pH relative to another peptide” value in assay [2] (mouse, in vivo) is “closer to physiological pH than peptide 9”. Further, the “cloaking of the complex by avidin binding” value in assay [3] (1.2 fold excess avidin) is “efficiently cloaked”. Besides, the “release in the presence of analyte (biotin) and avidin at acidic pH” value in assay [3] (biotin, 1.2 fold excess avidin, pH 6.6) was “triggered”. For the same substance, the “release in the presence of analyte (biotin) and avidin at pH 8” value in assay [3] (biotin, 1.2 fold excess avidin, pH 8) is reported as “only slight release”. The “amount of biotin detected by naked eye” value in assay [3] (glass vial, blue LED, five minutes, PBS pH 6.2, 1.2 fold excess avidin) was 12 picomole. Moreover, the “activity of peptide-liposome complex at acidic pH” value in assay [3] (pH 6.6, FIG. 2) is “active”. In addition, in assay [3] (pH 8, FIG. 2), the “activity of peptide-liposome complex at alkaline pH” value was “inactive”. The triggering of complex result in assay [4] is reported as “trigger in acidic media”.
